Source: patent publication US11883423B2, “Nucleobase analogue derivatives and their applications” (BOARD OF REGENTS, THE UNIVERSITY OF TEXAS SYSTEM, priority 2014, dated 2024)

Assays:
Panc-02 cells [1] = assay: Apoptosis analysis, Annexin V staining and flow cytometry; assay type: cell-based, mouse; settings: 48 h
Description: Apoptosis analysis was carried out as previously reported (Zhu S et al. Biomaterials. 2013, 34(9), 2327-2339). Briefly, 100,000 Panc-02 cells were incubated in 24-well plates for 24 h at 37° C. and 5% CO2 and then co-incubated with various concentrations of Gem-DHA for 48 h. The cells were then harvested and stained with 0.1 ml of Guava Nexin reagent (Millipore Corporation, Billerica, Mass.) for 20 min at room temperature, protected from light. The stained cells were analyzed using a Millipore Guava easyCyte 8HT Flow Cytometry System. Control cells were left untreated.

[2] = tested on: NCI-60 human tumor cell lines; assay: NCI-60 DTP Human Tumor Cell Line Screen, single dose; assay type: cell-based
Description: The cytotoxicity of Gem-DHA was also tested using the NCI-60 DTP Human Tumor Cell Line Screen service.

Panc-02 cells [3] = assay: Anti-proliferative activity, MTT assay, Panc-02 cells; assay type: cell-based; settings: Mus musculus, Panc02, 24 h
Description: The anti-proliferative activity of Gem-DHA was evaluated in Panc-02, TC-1, Panc-1-Luc, and BxPC-3 cell lines. For Panc-02 and TC-1 cells, cells (1,500/well for Panc-02 and 3,000/well for TC-1) were seeded in 96-well plates and incubated at 37° C. and 5% CO2 overnight. The cells were then treated with various concentrations of Gem-DHA or other compounds for 24 h. For BxPC-3 and Panc-1-Luc cells, 3,000 and 1,000 cells/well were used, respectively, and cells were co-incubated with the Gem-DHA for 72 h. Cell viability was determined using an MTT assay as previously described (Naguib YW et al. Mol Pharm. 2014, 11(4), 1239-1249). Gemcitabine HCl was dissolved in cell culture medium, whereas Gem-DHA and DHA were dissolved in dimethylsulfoxide (DMSO). The values of IC50 were calculated using GraphPad Prism (GraphPad software, Inc., La Jolla, CA).

[4] = design: species or system BALB/c mice; settings: female, BALB/c, mouse, in vivo, iv, 75 mg/kg, 1 h
Description: The biodistribution of Gem-DHA was further evaluated in healthy BALB/c mice. Briefly, female BALB/c mice (Charles River, 14-16 weeks, n=3) were injected via the tail vein with Gem-DHA in a Tween 80/ethanol/water solution containing 5% (w/v) mannitol at a dose of 75 mg/kg. After 1 h, mice were euthanized to collect pancreas, lung, spleen, liver, heart, and kidneys. Gem-DHA was extracted from the samples and analyzed using HPLC. As a control, mice (n=3) were also injected with gemcitabine HCl (75 mg/kg) in 5% (w/v) mannitol solution and euthanized 1 h later to collect their pancreas. Gemcitabine was extracted using the following method. Briefly, once the pancreas was collected, it was weighed, placed into 0.25 ml of PBS containing 40 μg of tetrahydrouridine (a deoxycytidine deaminase inhibitor) and homogenized using a bead beater. Deoxyuridine (dU, 20 μl of 20 μg/ml) was then added into the homogenate as an internal standard. Acetonitrile was used to precipitate the proteins twice, and gemcitabine content in the supernatant was analyzed using HPLC. […] Therefore, it appeared that Gem-DHA preferred to distribute in pancreatic tissues.

TC-1 tumors = assay: Antitumor activity against s.c. TC-1 tumors in C57BL/6 mice; assay type: in vivo; settings: i.p., 50 mg/kg, every 3-4 days, 4 times
Description: Therefore, the in vivo antitumor activity of Gem-DHA against TC-1 tumor cells was also evaluated. In the mouse model with TC-1 tumors, 5×10^5 cells were s.c. injected in the right flank of female C57BL/6 mice (Charles River, 6-8 weeks). Eight days later, mice were randomized into 3 groups (n=5-6) and i.p. injected with Gem-DHA (50 mg/kg, −0.087 mmole/kg), gemcitabine HCl (26.1 mg/kg, ˜0.087 mmole/kg), or left untreated as a control. Treatments were repeated every 3-4 days for a total of 4 times. Tumor growth was monitored and tumor volume was calculated as mentioned above. […] Shown in FIG. 14B are the body weights of TC-1 tumor-bearing mice after they were treated with multiple doses of Gem-DHA.

[5] = Solubility in ethanol or Tween 80; assay type: physicochemical

## CC/C=C\C/C=C\C/C=C\C/C=C\C/C=C\C/C=C\CCC(=O)Nc1ccn(C2OC(CO)C(O)C2(F)F)c(=O)n1 (stereo not drawn) [Gem-DHA, 4-(N)-Docosahexaenoyl Difluorodeoxycytidine]
Panc-02 cells [1]
  Pro-apoptotic activity, Annexin V staining: concentration-dependent apoptosis
[2]
  Growth inhibition in NCI-60 screen: inhibited the growth of various types of human tumor cells
Panc-02 cells [3]
  IC50: 0.034 nM
[4]
  Percent of injected compound recovered in each gram of pancreas: 0.37±0.18%
TC-1 tumors
  Control of growth of s.c. TC-1 tumors: more effective than a molar equivalent dose of gemcitabine HCl
[5]
  Solubility in ethanol or Tween 80: freely soluble
